Results published in ChEMBL document CHEMBL5108022, “Structure-Activity relationship study of benzothiophene oxobutanoic acid analogues leading to novel stimulator of interferon gene (STING) agonists” (Eur J Med Chem, 2022).
The source made the active and inactive calls. No cut-off for these calls is given here.

Assays:
[1] = target: T1, Stimulator of interferon genes protein (Mus musculus) (UniProt Q3TBT3); experiment: Agonist activity at STING in mouse RAW-Lucia ISG cells assessed as fold change in ISG activation at 50 uM incubated for 24 hrs by Quanti-Luc or Quanti-blue reagent based luminescence assay; format: cell-based
T1 sequence (whole entry): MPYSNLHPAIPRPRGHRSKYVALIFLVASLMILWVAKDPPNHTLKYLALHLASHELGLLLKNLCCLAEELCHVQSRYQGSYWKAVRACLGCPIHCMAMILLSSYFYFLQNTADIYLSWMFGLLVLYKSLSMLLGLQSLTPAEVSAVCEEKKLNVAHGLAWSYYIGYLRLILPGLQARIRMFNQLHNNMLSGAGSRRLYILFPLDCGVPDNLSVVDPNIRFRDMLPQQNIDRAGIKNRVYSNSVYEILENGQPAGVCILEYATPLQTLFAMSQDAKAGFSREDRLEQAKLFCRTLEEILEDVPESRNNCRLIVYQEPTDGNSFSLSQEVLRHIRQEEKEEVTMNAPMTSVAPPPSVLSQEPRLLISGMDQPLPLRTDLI

[2] = target: T2, Stimulator of interferon genes protein (Homo sapiens, UniProt Q86WV6); experiment: Agonist activity at STING in human THP1-Blue ISG cells assessed as fold change in ISG activation at 10 uM incubated for 24 hrs by Quanti-Luc or Quanti-blue reagent based luminescence assay; format: cell-based; conditions: filed as agonist
Target sequence in this assay (Q86WV6 whole entry): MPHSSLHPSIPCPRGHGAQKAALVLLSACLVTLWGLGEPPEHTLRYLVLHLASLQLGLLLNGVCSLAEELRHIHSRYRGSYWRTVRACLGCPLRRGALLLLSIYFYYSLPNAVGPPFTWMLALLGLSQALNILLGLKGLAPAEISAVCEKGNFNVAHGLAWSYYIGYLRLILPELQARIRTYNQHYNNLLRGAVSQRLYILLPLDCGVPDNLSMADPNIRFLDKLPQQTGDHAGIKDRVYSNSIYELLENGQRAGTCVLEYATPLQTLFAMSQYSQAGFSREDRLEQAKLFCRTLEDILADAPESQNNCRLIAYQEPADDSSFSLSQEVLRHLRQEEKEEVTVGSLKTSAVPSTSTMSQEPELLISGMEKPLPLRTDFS

[3] = target: T2, Stimulator of interferon genes protein; experiment: Agonist activity at STING in human THP1-Dual cells assessed as ISG pathway activation incubated for 24 hrs by Quanti-Luc or Quanti-blue reagent based luminescence assay; format: cell-based
Target sequence in this assay (Q86WV6 whole entry): as above

[4] = Toxicity against Balb/c mouse implanted with mouse 4T1 cells assessed as reduction in body weight at 100 mg/kg, po administered via gavage on day 1,4 and 7 and measured twice per week for 22 days; format: organism-based; conditions: in vivo, 528 h, time 22 day
[5] = system: Stimulator of interferon genes protein (Homo sapiens), Q86WV6 [UNDEFINED MUTATION]; experiment: Agonist activity at STING H232 variant in human 293-Dual hSTING-H232 cells assessed as activation of ISG pathway at 3.3 to 30 uM incubated for 48 hrs by Quanti-Luc or Quanti-blue reagent based luminescence assay; format: cell-based; conditions: filed as agonist, dose 3.3-30 µM
B16-F10 [6] = experiment: Antitumor activity against mouse B16-F10 cells implanted in immunocompetent C57BL/6 mouse assessed as inhibition of tumor growth at 100 mg/kg, po administered via gavage on day 1,4 and 7 and measured twice per week; format: functional, organism-based; conditions: time 7.0 day
[7] = target: T1, Stimulator of interferon genes protein (Mus musculus); experiment: Agonist activity at STING in mouse RAW-Lucia ISG cells assessed as activation of ISG pathway incubated for 24 hrs by Quanti-Luc or Quanti-blue reagent based luminescence assay; format: cell-based; conditions: filed as agonist, dose 3.12-50 µM, DDE = dose-dependent effect
[8] = target: T2, Stimulator of interferon genes protein; experiment: Agonist activity at STING in human THP1-Dual cells assessed as increase in TBK1 phosphorylation at 3.3 to 30 uM incubated for 2 to 4 hrs by Western blot analysis; format: cell-based; conditions: filed as agonist, dose 3.3-30 µM, time 2-4 hrs
Target sequence in this assay (Q86WV6 whole entry): as above

CT26 [9] = experiment: Antitumor activity against mouse CT26 cells implanted in immunocompetent Balb/c mouse assessed as suppression of tumor growth at 500 ug, IT administered on day 1,4 and 7 and measured twice per week; format: functional, cell-based; conditions: dose 500.0 µg, time 7.0 day
[10] = Toxicity in STING-knockout C57BL/6 mouse implanted with mouse B16-F10 cells assessed as reduction in body weight at 500 ug, IT administered on day 1,4 and 7 and measured twice per week for 8 days; format: cell-based; conditions: in vivo, other, 192 h, dose 500 µg, time 8 day
[11] = target: T2, Stimulator of interferon genes protein; experiment: Agonist activity at STING in human THP1-Dual cells assessed as increase in IFN-beta mRNA expression at 3.3 to 30 uM incubated for 6 hrs by RT-PCR analysis; format: cell-based; conditions: filed as agonist, dose 3.3-30 µM
Target sequence in this assay (Q86WV6 whole entry): as above

[12] = Toxicity in C57BL/6 mouse implanted with mouse B16-F10 cells assessed as reduction in body weight at 500 ug, IT administered on day 1,4 and 7 and measured twice per week for 8 days; format: cell-based; conditions: in vivo, other, 192 h, dose 500 µg, time 8 day
Homo sapiens = organism: Homo sapiens; experiment: Binding affinity to human STING 293Q variant assessed as thermal stability by measuring rightward shift in fluorescence curve at 50 uM by SYPRO orange dye based differential scanning fluorimetry assay; conditions: filed as agonist
B16-F10 [13] = experiment: Antitumor activity against mouse B16-F10 cells implanted in immunocompetent C57BL/6 mouse assessed as inhibition of tumor growth at 500 ug, IT administered on day 1,4 and 7 and measured twice per week for 8 days; format: functional, cell-based; conditions: dose 500.0 µg, time 8.0 day
CT26 [14] = experiment: Immunological memory derived antitumor activity against mouse CT26 cells implanted in immunocompetent Balb/c mouse assessed as suppression of tumor growth at 500 ug, IT administered on day 1,4 and 7 followed by reinoculation of cells into tumor-free animal after 2 months and measured for 22 days post inoculation; format: functional, cell-based; conditions: dose 500.0 µg, time 22.0 day
[15] = target: T2, Stimulator of interferon genes protein; experiment: Agonist activity at STING in human THP1-Dual cells assessed as increase in IP-10 mRNA expression at 3.3 to 30 uM incubated for 6 hrs by RT-PCR analysis; format: cell-based; conditions: filed as agonist, dose 3.3-30 µM
Target sequence in this assay (Q86WV6 whole entry): as above

4T1 = experiment: Antitumor activity against mouse 4T1 cells implanted in Balb/c mouse assessed as inhibition of tumor growth at 100 mg/kg, po administered via gavage on day 1,4 and 7 and measured twice per week; format: functional, organism-based; conditions: time 7.0 day
[16] = system: Stimulator of interferon genes protein (Homo sapiens), Q86WV6 [UNDEFINED MUTATION]; experiment: Agonist activity at STING R232 variant in human 293-Dual hSTING-R232 cells assessed as activation of ISG pathway at 3.3 to 30 uM incubated for 48 hrs by Quanti-Luc or Quanti-blue reagent based luminescence assay; format: cell-based; conditions: filed as agonist, dose 3.3-30 µM
[17] = Toxicity in Balb/c mouse implanted with mouse CT26 cells assessed as reduction in body weight at 500 ug, IT administered on day 1,4 and 7 and measured twice per week; format: cell-based; conditions: in vivo, other, 168 h, dose 500 µg, time 7 day
[18] = Toxicity in C57BL/6 mouse implanted with mouse B16-F10 cells assessed as reduction in body weight at 100 mg/kg, po administered via gavage on day 1,4 and 7 and measured twice per week; format: organism-based; conditions: in vivo, 168 h, time 7 day
Mus musculus = organism: Mus musculus; experiment: Binding affinity to mouse STING R231 variant assessed as thermal stability by measuring rightward shift in fluorescence curve at 50 uM by SYPRO orange dye based differential scanning fluorimetry assay; conditions: filed as agonist
[19] = target: T2, Stimulator of interferon genes protein; experiment: Agonist activity at STING in human THP1-Dual cells assessed as increase in IRF3 phosphorylation at 3.3 to 30 uM incubated for 2 to 4 hrs by Western blot analysis; format: cell-based; conditions: filed as agonist, dose 3.3-30 µM, time 2-4 hrs
Target sequence in this assay (Q86WV6 whole entry): as above

[20] = Toxicity in C57BL/6 mouse implanted with mouse B16-F10 cells assessed as reduction in body weight at 50 ug, IT administered on day 1,4 and 7 and measured twice per week for 8 days; format: cell-based; conditions: in vivo, other, 192 h, dose 50 µg, time 8 day
[21] = Toxicity in STING-knockout C57BL/6 mouse implanted with mouse B16-F10 cells assessed as reduction in body weight at 50 ug, IT administered on day 1,4 and 7 and measured twice per week for 8 days; format: cell-based; conditions: in vivo, other, 192 h, dose 50 µg, time 8 day
CT26 [22] = experiment: Antitumor activity against mouse CT26 cells implanted in immunocompetent Balb/c mouse assessed as suppression of tumor growth at 250 ug, IT administered on day 1,4 and 7 and measured twice per week; format: functional, cell-based; conditions: dose 250.0 µg, time 7.0 day
[23] = target: T2, Stimulator of interferon genes protein; experiment: Agonist activity at STING in human THP-1 cells assessed as increase in IFN-beta secretion incubated for 5 hrs by AlphaLISA assay; format: cell-based
[24] = target: T2, Stimulator of interferon genes protein; experiment: Displacement of cGAMP from human full length STING HAQ variant expressed in insect microsomes incubated for 16 hrs by TopCount scintillation counting method; design: species or system Microsome
Target sequence in this assay (Q86WV6 whole entry, looked up, change not shown): as the sequence (Q86WV6 whole entry) above

[25] = target: T2, Stimulator of interferon genes protein; experiment: Binding affinity to STING HAQ variant (unknown origin)
Target sequence in this assay (Q86WV6 whole entry, looked up, change not shown): as the sequence (Q86WV6 whole entry) above

Stimulator of interferon genes protein (Homo sapiens), Q86WV6 [UNDEFINED MUTATION], sequence (Q86WV6 whole entry, looked up, stated change not applied): as the sequence (Q86WV6 whole entry) above

Row | SMILES | fold change (FC) ([1]; filed as agonist) | fold change (FC) [2] | further results
1 | COc1cc2cc(C(=O)CCC(=O)O)oc2cc1OC | 1 | 0.9 | –
2 | COc1cc2cc(-c3cc(C(=O)O)[nH]n3)sc2cc1OC | 1 | 1 | –
3 | COc1cc2cc(C(CCC(=O)O)OC)sc2cc1OC (centres undefined) | 0.5 | 1 | –
4 | COc1cc2cc(C(=O)CCC(=O)ONCc3ccccc3)sc2cc1OC | 25.3 | 22.4 | EC50 [3]: 6.14 µM
5 | Nc1ncnc2c1ncn2[C@@H]1O[C@@H]2CO[P@@](=O)(S)O[C@@H]3[C@H](O)[C@@H](CO[P@@](=O)(S)O[C@H]2[C@H]1O)O[C@H]3n1cnc2c(N)ncnc21 | – | – | Activity [20]: Non-Toxic; Activity [21]: Non-Toxic
6 | COc1cc2cc(C(=O)CCC(=O)NOCc3ccccc3)sc2cc1OC | 0.8 | 16.5 | –
7 | COc1cc2cc(NC(=O)CC(=O)O)sc2cc1OC | 1.1 | 1 | –
8 | Cc1ccc2c(=O)c3cccc(CC(=O)O)c3oc2c1C | – | – | Activity (CT26 [22]): Active
9 | COc1cc2cc(C3=NOC(C(=O)O)C3)sc2cc1OC (centres undefined) | 0.9 | 3.8 | –
10 | COc1cc2cc(C(=O)CCC(=O)N(O)Cc3ccccc3)sc2cc1OC | 1.1 | 2.3 | –
11 | COc1cc2cc(C(=O)CCC(=O)ONC3CCCCC3)sc2cc1OC | 1.1 | 25 | –
12 | COc1cc2sc(C(=O)CC(C)(C)C(=O)O)cc2c(F)c1OCCCOc1c(OC)cc2sc(C(=O)CC(C)(C)C(=O)O)cc2c1F | – | – | EC50 [23]: 0.008 µM; IC50 [24]: 0.002 µM
13 | COc1cc2nc(C(=O)CCC(=O)O)[nH]c2cc1OC | 1.1 | 0.9 | –
14 | COc1cc2c(cc1OC)S(=O)(=O)C(C(=O)CCC(=O)O)=C2 | 0.7 | 1.1 | –

Continued, in another order:

Row | fold change (FC) ([1]; filed as agonist) | fold change (FC) [2] | SMILES | further results
15 | 19.3 | 25.4 | COc1cc2cc(C(=O)CCC(=O)ONC(C)C)sc2cc1OC | Activity [4]: Non-Toxic; Activity [5]: Active; inhibition (B16-F10 [6]): Active; Activity [7]: Dde; EC50 [3]: 2.55 µM; Activity [8]: Active; Activity (CT26 [9]): Active; Activity [10]: Non-Toxic; Activity [11]: Active; Activity [12]: Non-Toxic; Activity (Homo sapiens): Active; inhibition (B16-F10 [13]): Active; Activity (CT26 [14]): Active; Activity [15]: Active; inhibition (4T1): Active; Activity [16]: Active; Activity [17]: Non-Toxic; Activity [18]: Non-Toxic; Activity (Mus musculus): Active; Activity [19]: Active
16 | 1 | 1 | COc1cc2cc(C(=O)SCC(=O)O)sc2cc1OC | –
17 | 0.8 | 1.1 | COc1cc2cc(C(=O)CCCC(=O)O)sc2cc1OC | –
18 | 2.7 | 24.2 | CONC(=O)CCC(=O)c1cc2cc(OC)c(OC)cc2s1 | –
19 | – | 1.2 | COc1cc2cc(C(=O)NCC(=O)O)sc2cc1OC | –
20 | 0.5 | 3.2 | COc1cc2cc(C(=O)CCC(=O)N(C)OC)sc2cc1OC | –
21 | 1.2 | 1 | COc1cc2cc(C(=O)CCC(=O)N(O)C(C)C)sc2cc1OC | –
22 | – | 0.9 | COc1cc2cc(C(O)CCC(=O)O)sc2cc1OC (centres undefined) | fold change (FC) [1]: < 1
23 | – | 1.2 | COc1cc2cc(C(=O)NCCC(=O)O)sc2cc1OC | –
24 | – | 1 | COc1cc2cc(CCCC(=O)O)sc2cc1OC | fold change (FC) [1]: < 1
25 | 0.7 | 15 | COc1cc2cc(C(=O)CCC(=O)N(C)O)sc2cc1OC | –
26 | 13.6 | 23.5 | COc1cc2cc(C(=O)CCC(=O)O)sc2cc1OC | EC50 [3]: 8.14 µM; EC50 [25]: 1.72 µM
27 | – | 21.2 | COc1cc2cc(C(=O)CCC(=O)ONC(C)(C)C)sc2cc1OC | fold change (FC) [1]: < 1
